Where a SMILES comes first, the peptide text is derived from it.
Assays:
[1] = test system: BDNF, PGC1a and TFEB in GM04719 fibroblasts; test: BDNF, PGC1a and TFEB levels in HD patient-derived fibroblasts, western blotting; format: cell-based, human; details: 1 uM
Description: To validate the therapeutic potential of P1 in Huntington's Disease, we likewise assessed whether P1 could increase the three distinct pathways in fibroblasts derived from a HD patient. The fibroblasts were bought from Coriell Biobank. The patient-derived fibroblasts, named GM04719, was sampled from a person with clinical onset […]. The patient has 44-CAG repeats in their HTT-gene.
To assess target engagement by P1, 30,000-50,000 fibroblasts were seeded per well in a 96-well plate. The following day, the cells were treated with 1 uM of P1 and incubated at 37° C. and 5% CO2 at timepoints between 2-24 hours. Hereafter, the cells were lysed in RIPA lysis buffer containing cOmplete cocktail protease inhibitor. BDNF, PGC1a and TFEB levels were analysed by western blotting normalized to beta-actin.

[2] = test system: pCREB, TFEB, LAMP1, p62/SQSTM1, PGRN, PGC1a; test: Pathway engagement in striatum of wild-type mice after SC injection, western blotting; format: in vivo, mouse; details: 13 mg/kg SC
Description: Wild-type mice were injected with 13 mg/kg of P1 (SEQ ID NO: 1) subcutaneously in 4.38 mM L-His, 140 mM NaCl, 0.2% Tween-20 and 1500 IU hyaluronidase (pH 6.15). The mice were sacrificed at timepoints between 2-8 hours after injection. Striatal tissue was isolated and the tissue was lysed using a TissueLyser in RIPA lysis buffer containing cOmplete and phosSTOP. Levels of pCREB, TFEB, downstream lysosomal gene products LAMP1, p62/SQSTM1, PGRN and mitochondrial master regulator PGC1a were validated by western blotting. All proteins were normalized to beta-actin levels.

[3] = test system: BDNF, TrkB, PGC1a, DARPP32; test: Neurotrophic and mitochondrial proteins in cortex of R6/2 mice after daily SC administration; format: in vivo, mouse; details: 13 mg/kg SC daily, 8 to 12 weeks of age
Description: In a separate study, we validated target engagement of P1 (SEQ ID NO: 1) in R6/2 mice (mouse model of Huntington's), when treated for a prolonged period in the late stage of disease in this model. R6/2 mice were obtained from the Jackson Laboratory as: • FEMALE B6CBA-Tg(HDexon1)62Gpb/3J, stock 006494. Hemizygous (R6/2) • FEMALE B6CBA-Tg(HDexon1)62Gpb/3J, stock 006494. NonCarrier (WT controls)
The R6/2 mice were injected with a daily dose of 13 mg/kg of P1 subcutaneously in 4.38 mM L-His, 140 mM NaCl, 0.2% Tween-20 and 1500 IU hyaluronidase (pH 6.15) between 8 weeks to 12 weeks of age. At 12 weeks of age, mice were sacrificed and their brains removed and both hippocampus—cortex and striatal tissue was isolated and lysed in RIPA lysis buffer containing containing cOmplete and phosSTOP.
Levels of both BDNF and its receptor, TrkB, were validated along with levels of the mitochondrial master regulator PGC1a. In addition, levels of DARPP32, a marker of medium spiny neurons (MSN), which are the neurons that ultimately perish in HD, were evaluated in cortex tissue.

GRN = GRN levels in hippocampus of wild-type mice after 7 days daily SC treatment; format: in vivo, mouse; details: 13 mg/kg SC daily for 7 days, sacrificed on day 8
Description: Wild-type mice were injected with a daily dose of 13 mg/kg of P1 (SEQ ID NO: 1) subcutaneously in 4.38 mM L-His, 140 mM NaCl, 0.2% Tween-20 and 1500 IU hyaluronidase (pH 6.15) for 7 days. The mice were sacrificed on day 8. The hippocampus was isolated and lysed using a TissueLyser in RIPA lysis buffer containing cOmplete and phosSTOP. Levels of GRN (ab HPA008763 from Sigma) was validated by western blotting normalized to beta-actin. Student's t-test was used for statistical analysis.

CSCC[C@@H]1NC(=O)[C@H](C(C)C)NC(=O)[C@H](CC(=O)O)NC(=O)[C@H](CCC(=O)O)NC(=O)[C@H](CCC(=O)O)NC(=O)[C@H](Cc2c[nH]cn2)NC(=O)[C@H](CCC(=O)O)NC(=O)[C@H](C(C)C)NC(=O)[C@@H]2CCCN2C(=O)[C@H](CCC(=O)O)NC(=O)[C@H]([C@@H](C)O)NC1=O [Peptide P1, [MTEPVEHEEDV]] (cyclo(MTEPVEHEEDV)) was tested, and the PGC1a level ([1]; 6 hours of treatment) was “upregulated”, the TFEB level ([1]; 6 hours of treatment) was “upregulated” and the BDNF level ([1]; after 24 hours) was “significantly upregulated”. For the same compound, the pCREB in striatum ([2]; after 2 hours) was “significantly activates CREB”, the pCREB in striatum ([2]; at 4 hours) was “no significant effect” and the PGC1a in striatum ([2]; at 6 hours) was “significantly increased”. For the same compound, the PGRN in striatum ([2]; at 6 hours) was “significantly increased”, the “p62/SQSTM1 levels in striatum (autophagic flux)” value ([2]; at 8 hours following injection) was “significantly lowered” and the LAMP1 in striatum ([2]; between 2-4 hours) was “significantly increased”. The TFEB in striatum ([2]; between 2-4 hours) was “significantly increased”, the “BDNF levels in cortex” value [3] was “significantly higher basal levels” and the “DARPP32 levels in cortex” value [3] was “tendency to increase”. For the same compound, the “PGC1a levels in cortex” value [3] was “significantly higher basal levels”, the “TrkB levels in cortex” value [3] was “significantly higher basal levels” and the “GRN levels in hippocampus” value (GRN) was “higher levels of GRN”.

Reference: patent US20230312652A1, “NOVEL PEPTIDES AND USES THEREOF” (Aarhus Universitet, priority 2020, published 2023)
